Read-outs that look alike come from different tables or passages of the source.

In general, Ki refers to a measure of affinity in units of concentration, obtained from inhibition or displacement.

For one assay, the target named is Cathepsin S (Homo sapiens, UniProt P25774). Briefly: Cathepsin S inhibition assay (fluorogenic peptide substrate). It is filed as biochemical. In outline: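 Ki values come from nonlinear fitting of inhibited hydrolysis rates, taking free and total inhibitor concentrations as equal. Rates measured as rising fluorescence at 380/450 nm after reaction start with 50 μM final acetyl-HPVK-aminocarbamoylcoumarin.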

Another assay concerns the target T1, Cathepsin K (Homo sapiens, UniProt P43235).
T1 sequence (P43235 115-329): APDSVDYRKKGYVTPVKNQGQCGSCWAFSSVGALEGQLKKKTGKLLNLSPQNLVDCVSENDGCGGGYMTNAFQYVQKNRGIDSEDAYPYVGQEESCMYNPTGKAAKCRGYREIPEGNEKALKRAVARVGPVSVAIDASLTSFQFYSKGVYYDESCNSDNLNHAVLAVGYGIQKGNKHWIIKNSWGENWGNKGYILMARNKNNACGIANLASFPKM
The assay can be described thus: Cathepsin K inhibition assay (fluorogenic peptide substrate); selectivity ratio vs cathepsin S. It counts as biochemical. In a few lines: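 Fluorogenic kinetic assay, started with acetyl-Lys-His-Pro-Lys-aminocarbamoylcoumarin at 40 μM final, hydrolysis followed at ex 380/em 450 nm. Apparent inhibition constants from progress curves, converted to competitive inhibition constants. Selectivity expressed as isozyme inhibition constant divided by cathepsin S inhibition constant.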

[1] abbreviates: Table II, compounds of Formula I, read-out: Ki Cat. S.
Setting [2] is: ratio of cathepsin K inhibition constant to cathepsin S inhibition constant, Table II.

Cathepsin S, sequence (P25774 115-331, species assumed): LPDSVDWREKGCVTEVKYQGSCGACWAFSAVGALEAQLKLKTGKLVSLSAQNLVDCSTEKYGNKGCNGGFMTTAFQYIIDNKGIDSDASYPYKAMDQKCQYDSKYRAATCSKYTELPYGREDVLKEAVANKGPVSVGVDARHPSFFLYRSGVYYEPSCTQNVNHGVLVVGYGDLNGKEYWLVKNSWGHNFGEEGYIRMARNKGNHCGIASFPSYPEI

As for `O=C(N[C@@H](CC1CCCCC1)C(=O)NCCNc1ccc(OC(F)(F)F)cc1)c1ccc(-c2cccc(OC(F)(F)F)c2)s1` [Compound 209, (S)-5-(3-Trifluoromethoxy-phenyl)-thiophene-2-carboxylic acid {2-cyclohexyl-1-[2-(4-trifluoromethoxy-phenylamino)-ethylcarbamoyl]-ethyl}-amide], on Cathepsin S (setting [1]), the Ki was less than 100 nM. On Cathepsin K (setting [2]), the “Selectivity for Cat. S over Cat. K” value is reported as “+++ (+++, >1000)”.

On to `CC(=O)N1CCN(c2ccc(OCC(=O)N[C@@H](CC3CCCCC3)C(=O)NCCNc3ccc(OC(F)(F)F)cc3)cc2)CC1` [Compound 15, (S)-2-{2-[4-(4-Acetyl-piperazin-1-yl)-phenoxy]-acetylamino}-3-cyclohexyl-N-[2-(4-trifluoromethoxy-phenylamino)-ethyl]-propionamide], for which the Ki at Cathepsin S (setting [1]) is less than 1000 nM. Moreover, the “Selectivity for Cat. S over Cat. K” value on Cathepsin K (setting [2]) is listed as “+ (+, >10)”.

In the case of `COc1ccc(NCCNC(=O)[C@H](Cc2ccc(-c3cccc(C(C)=O)c3)cc2)NC(=O)c2cccc(C)c2)cc1` [Compound 290, (S)-N-{2-(3′-Acetyl-biphenyl-4-yl)-1-[2-(4-methoxy-phenylamino)-ethylcarbamoyl]-ethyl}-3-methyl-benzamide], the Ki on Cathepsin S (setting [1]) is less than 100 nM. At Cathepsin K (setting [2]), the “Selectivity for Cat. S over Cat. K” value is on record as “+++ (+++, >1000)”.

With `O=C(Cc1cccs1)N[C@@H](CC1CCCCC1)C(=O)NCCNc1ccc(F)cc1` [Compound 76, 3-Cyclohexyl-N-[2-(4-fluoro-phenylamino)-ethyl]-2-(S)-(2-thiophen-2-yl-acetylamino)-propionamide], the Ki at Cathepsin S (setting [1]) is less than 100 nM. Besides, the “Selectivity for Cat. S over Cat. K” value on Cathepsin K (setting [2]) is “+++ (+++, >1000)”.

In the case of `COc1ccc(NCCNC(=O)[C@H](Cc2cc(F)cc(F)c2)NC(=O)c2cccc(C)c2)cc1` [Compound 230, (S)-N-{2-(3,5-Difluoro-phenyl)-1-[2-(4-methoxy-phenylamino)-ethylcarbamoyl]-ethyl}-3-methyl-benzamide], the Ki on Cathepsin S (setting [1]) was less than 100 nM. Besides, at Cathepsin K (setting [2]), the “Selectivity for Cat. S over Cat. K” value is given as “+++ (+++, >1000)”.

Regarding `COc1ccc(NCCNC(=O)[C@H](Cc2ccccc2)NC(=O)NCCc2ccccc2)cc1` [Compound 90, (S)-N-[2-(4-Methoxy-phenylamino)-ethyl]-2-(3-phenethyl-ureido)-3-phenyl-propionamide], on Cathepsin S (setting [1]), the Ki is less than 1000 nM. Besides, at Cathepsin K (setting [2]), the “Selectivity for Cat. S over Cat. K” value is on record as “+ (+, >10)”.

For `O=C(NCCNc1ccc(F)cc1)[C@H](CC1CCCCC1)NC(=O)[C@H](O)c1ccccc1` [Compound 317, 3-Cyclohexyl-N-[2-(4-fluoro-phenylamino)-ethyl]-2-(S)-(2-(R)-hydroxy-2-phenyl-acetylamino)-propionamide], on Cathepsin S (setting [1]), the Ki was less than 100 nM. Further, the “Selectivity for Cat. S over Cat. K” value at Cathepsin K (setting [2]) is “++ (++, >100)”.

For the molecule `COc1ccc(NCCNC(=O)[C@H](CCc2ccccc2)NC(=O)c2ccc(-c3cccc(C(F)(F)F)c3)o2)cc1` [Compound 1, N-((S)-1-(2-(4-methoxyphenylamino)ethylcarbamoyl)-3-phenylpropyl)-5-(3-(trifluoromethyl)phenyl)furan-2-carboxamide], the Ki on Cathepsin S (setting [1]) was less than 1000 nM. Moreover, the “Selectivity for Cat. S over Cat. K” value at Cathepsin K (setting [2]) is listed as “++ (++, >100)”.

For `COc1ccc(NCCNC(=O)[C@H](CC2CCCCC2)NC(=O)c2cc(F)cc(C(F)(F)F)c2)cc1` [Compound 165, (S)-N-{2-Cyclohexyl-1-[2-(4-methoxy-phenylamino)-ethylcarbamoyl]-ethyl}-3-fluoro-5-trifluoromethyl-benzamide], the Ki at Cathepsin S (setting [1]) is less than 100 nM. Also, on Cathepsin K (setting [2]), the “Selectivity for Cat. S over Cat. K” value is given as “+++ (+++, >1000)”.

On to `O=C(N[C@@H](CC1CCCCC1)C(=O)NCCNc1ccc(OC(F)(F)F)cc1)c1ccc(-c2ccc(C(F)(F)F)cc2)o1` [Compound 213, (S)-5-(4-Trifluoromethyl-phenyl)-furan-2-carboxylic acid {2-cyclohexyl-1-[2-(4-trifluoromethoxy-phenylamino)-ethylcarbamoyl]-ethyl}-amide], for which, on Cathepsin S (setting [1]), the Ki was less than 100 nM. Further, at Cathepsin K (setting [2]), the “Selectivity for Cat. S over Cat. K” value is “+++ (+++, >1000)”.

Regarding `COc1ccc(NCCNC(=O)[C@H](CC2CCCCC2)NC(=O)c2cc(Cl)ccc2F)cc1` [Compound 156, (S)-5-Chloro-N-{2-cyclohexyl-1-[2-(4-methoxy-phenylamino)-ethylcarbamoyl]-ethyl}-2-fluoro-benzamide], at Cathepsin S (setting [1]), the Ki was less than 100 nM. The “Selectivity for Cat. S over Cat. K” value on Cathepsin K (setting [2]) was “+++ (+++, >1000)”.

Consider `COc1ccc(NCCNC(=O)[C@H](CC2CCCCC2)NC(=O)c2cccc(C(F)(F)F)c2F)cc1` [Compound 166, (S)-N-{2-Cyclohexyl-1-[2-(4-methoxy-phenylamino)-ethylcarbamoyl]-ethyl}-2-fluoro-3-trifluoromethyl-benzamide], for which, on Cathepsin S (setting [1]), the Ki is less than 100 nM. Also, the “Selectivity for Cat. S over Cat. K” value on Cathepsin K (setting [2]) was “+++ (+++, >1000)”.

Take `COc1ccc(NCCNC(=O)[C@H](CCC2CCCCC2)NC(=O)c2cccc(-c3ccccc3)c2)cc1` [Compound 144, (S)-Biphenyl-3-carboxylic acid {3-cyclohexyl-1-[2-(4-methoxy-phenylamino)-ethylcarbamoyl]-propyl}-amide]: the Ki on Cathepsin S (setting [1]) was less than 1000 nM. Moreover, the “Selectivity for Cat. S over Cat. K” value at Cathepsin K (setting [2]) was “+++ (+++, >1000)”.

As to `Cc1nc(-c2ccc(C(=O)N[C@@H](CC3CCCCC3)C(=O)NCCNc3ccc(OC(F)(F)F)cc3)cc2)no1` [Compound 28], the inhibition constant (Ki) at Cathepsin S (setting [1]) was less than 1000 nM. Moreover, the “Selectivity for Cat. S over Cat. K” value at Cathepsin K (setting [2]) was “+ (+, >10)”.

On to `COc1ccc(NCCNC(=O)[C@H](Cc2ccc(-c3ccccc3[N+](=O)[O-])cc2)NC(=O)c2cccc(C)c2)cc1` [Compound 273, (S)-N-[1-[2-(4-Methoxy-phenylamino)-ethylcarbamoyl]-2-(2′-nitro-biphenyl-4-yl)-ethyl]-3-methyl-benzamide], for which the Ki at Cathepsin S (setting [1]) was less than 1000 nM. The “Selectivity for Cat. S over Cat. K” value at Cathepsin K (setting [2]) is listed as “++ (++, >100)”.

With `O=C(N[C@@H](CC1CCCCC1)C(=O)NCCNc1ccc(OC(F)(F)F)cc1)c1ccc(-c2ccccc2F)s1` [Compound 201, (S)-5-(2-Fluoro-phenyl)-thiophene-2-carboxylic acid {2-cyclohexyl-1-[2-(4-trifluoromethoxy-phenylamino)-ethylcarbamoyl]-ethyl}-amide], the Ki on Cathepsin S (setting [1]) is less than 100 nM. For the same molecule, the “Selectivity for Cat. S over Cat. K” value at Cathepsin K (setting [2]) was “++ (++, >100)”.

In the case of `COc1ccc(NCCNC(=O)[C@@H](CC(C)C)NC(=O)c2ccc(-c3ccccc3)cc2)cc1` [reference compound], the Ki on Cathepsin S (comparison compounds in the art, read-out: Ki (CatS)) is less than 100 nM; at Cathepsin K (comparison compounds in the art, read-out: Ki (CatK)), less than 100 nM. For the same molecule, the “Selectivity for Cat. S over Cat. K” value at Cathepsin K (comparison compounds in the art, ratio Ki CatK / Ki CatS) is given as less than 10.

(Values after patent US7109243B2 (IRM LLC, priority 2003, dated 2006).)
